Entries after “also recorded” stand apart in the source; their conditions may differ. Where two headings read alike, the source gives them in different places.
Tests used:
Format in all cases: cell-based
[1] = system: HAdV-C5 wt; test: Western blot of viral protein expression (Fig. 3C); settings: 1 and 2µM ATO
[2] = system: HAdV-C5 delta E3 virus, encoding a CMV promoter driven eGFP expression cassette; test: IncuCyte live-cell imaging, real-time kinetics of GFP expression (Fig. 2D); settings: 60h p.i., A549 cells
[3] = system: HAdV-C5 wt; test: Tecan plate reader measurement of E2A and capsid immunofluorescence intensity in infected H1299 cells (Fig. 2A)
Procedure: (§1) • Figure 1: ATO efficiently reduces HAdV infectivity (cf. Example 1). H1299 cells were infected with HAdV-C5 wt at a multiplicity of 5 FFU/cell, treated with the depicted concentrations of ATO at 2 h.p.i., fixed 48 h.p.i. with 4 % PFA and double labeled with mAb B6-8 (α-E2A) and pAb L133 (α-Capsid). Primary antibodies were detected using Alexa488 (E2A, green) and Alexa568 (Capsid, red) conjugated secondary antibodies. (A) The number of E2A and Capsid expressing cells, respectively, was counted in n=40 overview pictures (not shown), normalized to untreated, infected cells, and represented in bar charts. Bar charts represent average values and standard deviations based on four independent experiments. (B) H1299 cells were infected with HAdV-C5 at a multiplicity of 20 FFU/cell, and treated with the depicted concentrations of ATO at 2 h.p.i.. Viral particles were harvested 48 h.p.i. and virus yield was determined by quantitative E2A immunofluorescence staining in 293 cells. Bar charts represent average values and standard deviations based on three independent experiments. Statistically significant differences were determined using a two-sided Welch's t-test. *: P ≤ 0.05, **: P ≤ 0.01, ***: P ≤ 0.001, ****: P ≤ 0.0001. • Figure 2: ATO induces a dose dependent reduction of HAdV infectivity with minor effects on cell viability (cf. Example 2). (A) H1299 cells were infected with HAdV-C5 wt at a multiplicity of 20 FFU/cell and treated with the depicted concentrations of ATO at 2 h.p.i.. 24 or 48 h.p.i., cell viability was assessed using the Promega CellTiter-Blue Cell Viability Assay system, prior to fixation with 4 % PFA and cells were double labeled with mAb B6-8 (α-E2A) and pAb L133 (α-Capsid). Primary antibodies were detected using Alexa488 (E2A, green) and Alexa647 (Capsid, red) conjugated secondary antibodies. Fluorescence intensity was measured using a Tecan Infinite 200M plate reader using an excitation and emission wavelength of 488 and 520nm for Alexa488 and 640 and 670nm for Alexa647 respectively. Fluorescence intensity was normalized to untreated, infected cells at 48h p.i.. xy charts represent average values and standard deviations based on three independent experiments measured in triplicates. (B) H1299 cells were infected with an HAdV-C5 delta E3 virus, encoding a CMV promoter driven eGFP expression cassette, at a multiplicity of 20FFU/cell and treated with the depicted concentrations of ATO at 2h p.i.; 24 or 48 h p.i. cell viability was assessed using the Promega CellTiter-Blue Cell Viability Assay system, and GFP fluorescence intensity was measured using a Tecan Infinite 200M plate reader using an excitation and emission wavelength of 488 and 520nm. Fluorescence intensity was normalized to untreated, infected cells at 48h p.i.; xy charts represent average values and standard deviations based on three independent experiments measured in triplicates. (C) H1299 cells were infected with an eGFP expressing HAdV-C5 based first generation adenoviral vector at a multiplicity of 20 FFU/cell and treated with the depicted concentrations of ATO at 2h p.i.; 24 or 48h p.i., cell viability was assessed using the Promega CellTiter-Blue Cell Viability Assay system, and GFP fluorescence intensity was measured using a Tecan Infinite 200M plate reader using an excitation and emission wavelength of 488 and 520nm. Fluorescence intensity was normalized to untreated, infected cells at 48h p..i.; xy charts represent average values and standard deviations based on three independent experiments measured in triplicates. (D) A549 cells were infected with an HAdV-C5 delta E3 virus, encoding a CMV promoter driven eGFP expression cassette, at a multiplicity of 20FFU/cell and treated with the depicted concentrations of ATO at 2h p.i.. GFP-fluorescence, as well as cell growth via phase contrast-imaging was assessed for 48 h with a 2h increment using an IncuCyte S3 Live-Cell Analysis System. […]

[4] = system: HAdV-C5 delta E3 virus, encoding a CMV promoter driven eGFP expression cassette; test: GFP fluorescence of replication competent GFP-expressing virus in H1299 cells (Fig. 2B); settings: for IC50: read-out: IC50 (HAdV infection, GFP)
Procedure: as §1, with “520nm.” for “520nm. Fluorescence intensity was normalized to untreated, infected cells at 48h p..i.; xy charts represent average values and standard deviations based on three independent experiments measured in triplicates. (D) A549 cells were infected with an HAdV-C5 delta E3 virus, encoding a CMV promoter driven eGFP expression cassette, at a multiplicity of 20FFU/cell and treated with the depicted concentrations of ATO at 2h p.i.. GFP-fluorescence, as well as cell growth via phase contrast-imaging was assessed for 48 h with a 2h increment using an IncuCyte S3 Live-Cell Analysis System.”

[5] = system: HAdV-C5 wt; test: Quantitative RT-PCR of viral E1A and Hexon mRNA (Fig. 3B); settings: 2µM ATO, 48h

## arsenic trioxide [ATO]
[1]
  expression of the early viral protein E2A: decrease
  late capsid and capsid associated proteins: decrease
[1]; 48 h.p.i.
  viral early and late protein synthesis: significantly impaired
[2]
  reduction of GFP expression / viral load over time: four-fold
[3]; 2µM ATO, 48h p.i.
  reduction of capsid expression: 40%
[3]; 4µM ATO, 24h p.i.
  reduction of E2A protein expression: more than 50%
[3]; 4µM ATO, 24h p.i., Fig. 2A
  E2A expression compared to the untreated control: less than 50%
[3]; 4µM ATO, 48h p.i.
  capsid detection / capsid expression: complete loss
[3]; 4µM ATO, 48h p.i., remaining expression
  E2A expression reduced to: 60%
[3]; 8µM ATO, 24h p.i., Fig. 2A
  HAdV E2A protein expression: completely block; also recorded: completely blocking
[3]; 8µM ATO, 48h p.i.
  E2A expression: not detectable; also recorded: completely blocking
  reduction of E2A protein expression: up to 60%
[3]; 24h p.i., Fig. 2A, read-out: IC50 (E2A expression)
  IC50: 1910 nM
[3]; 48h p.i., Fig. 2A, read-out: IC50 (E2A expression)
  IC50: 4060 nM
[3]; 48h p.i., Fig. 2A, read-out: IC50 (capsid expression)
  IC50: 2070 nM
[4]; 2µM ATO, 48h p.i.
  inhibition of adenoviral infection: more than 50%
[4]; 4µM ATO, 24h p.i.
  inhibition of adenoviral infection: up to 75%
[4]; 4µM ATO, 48h p.i.
  inhibition of adenoviral infection: more than 75%
[4]; 24h p.i.
  IC50: 1610 nM
[4]; 48 h p.i.
  IC50: 1180 nM
[5]
  inhibition of Hexon viral mRNA expression: 60%
